Measured values: ChEMBL document CHEMBL6182894, “Design, synthesis, and biological evaluation of quinolinyl-ureido-phenyl-hydrazide derivatives and quinolinyl-hydrazide derivatives as anticancer agents targeting Nur77-mediated ferroptosis” (Eur J Med Chem, 2025)
pIC50: −log10 of the molar value. Calls of active or inactive are those of the source. The rule behind the calls is not given here.

How the values were obtained:
[1] = tested on: MCF7; assay: Induction of ferroptosis in human MCF7 cells assessed as accumulation of lipid peroxidation at 3 uM incubated for 24 hrs by BODIPYTM 581/591C11 probe based inverted fluorescence microscopic analysis; type: functional, cell-based
[2] = tested on: MCF7; assay: Antiproliferative activity against human MCF7 cells assessed as inhibition of cell growth at 50 uM by MTT assay relative to control; type: functional
[3] = tested on: HCT-116; assay: Antiproliferative activity against human HCT-116 cells assessed as inhibition of cell growth by MTT assay
[4] = tested on: HepG2; assay: Antiproliferative activity against human HepG2 cells assessed as inhibition of cell growth by MTT assay
[5] = Cytotoxicity in HaCaT cells assessed as inhibition of cell growth by MTT assay; type: toxicity, cell-based; conditions: human
[6] = Cytotoxicity in human MCF-10A cells assessed as inhibition of cell growth by MTT assay; type: toxicity, cell-based
[7] = tested on: MCF7; assay: Inhibition of colony formation in human MCF7 cells at 4.5 uM incubated for 3 days by crystal violet staining based analysis relative to control; type: functional; conditions: MCF7, 72 h, time 3 day
[8] = tested on: MCF7; assay: Upregulation of Nur77 protein expression in human MCF7 cells at 3 to 6 uM measured at 2 hrs by Western blot assay; type: functional, cell-based; conditions: dose 3-6 µM
[9] = tested on: MCF7; assay: Upregulation of Nur77 protein expression in human MCF7 cells at 3 uM measured at 2 to 10 hrs by Western blot assay; type: functional, cell-based; conditions: time 2-10 hrs
[10] = tested on: MCF7; assay: Antiproliferative activity against Nur77 knockout human MCF7 cells at 3 uM incubated for 24 hrs by EdU staining based analysis; type: functional, cell-based
[11] = tested on: MCF7; assay: Cytotoxicity in Nur77 knockout human MCF7 cells at 1 to 3 uM incubated for 24 hrs by MTT assay; type: functional, cell-based; conditions: dose 1-3 µM
[12] = tested on: MCF7; assay: Induction of apoptosis in human MCF7 cells assessed as viable cells at 3 uM incubated for 24 hrs by Annexin V-FITC/PI staining based flow cytometry analysis (reference value: 98.1%); type: functional; conditions: read-out: Activity
[13] = tested on: MCF7; assay: Induction of apoptosis in human MCF7 cells assessed as early apoptotic cells at 3 uM incubated for 24 hrs by Annexin V-FITC/PI staining based flow cytometry analysis (Rvb =0.82%); type: functional
[14] = tested on: MCF7; assay: Induction of apoptosis in human MCF7 cells assessed as late apoptotic cells at 3 uM incubated for 24 hrs by Annexin V-FITC/PI staining based flow cytometry analysis (Rvb =0.86%); type: functional
[15] = tested on: MCF7; assay: Induction of apoptosis in human MCF7 cells assessed as necrotic cells at 3 uM incubated for 24 hrs by Annexin V-FITC/PI staining based flow cytometry analysis (Rvb =0.2%); type: functional
[16] = tested on: MCF7; assay: Induction of apoptosis in human MCF7 cells assessed as viable cells at 6 uM incubated for 24 hrs by Annexin V-FITC/PI staining based flow cytometry analysis (reference value: 98.1%); type: functional; conditions: read-out: Activity
[17] = tested on: MCF7; assay: Induction of apoptosis in human MCF7 cells assessed as early apoptotic cells at 6 uM incubated for 24 hrs by Annexin V-FITC/PI staining based flow cytometry analysis (Rvb =0.82%); type: functional
[18] = tested on: MCF7; assay: Induction of apoptosis in human MCF7 cells assessed as late apoptotic cells at 6 uM incubated for 24 hrs by Annexin V-FITC/PI staining based flow cytometry analysis (Rvb =0.86%); type: functional
[19] = tested on: MCF7; assay: Induction of apoptosis in human MCF7 cells assessed as necrotic cells at 6 uM incubated for 24 hrs by Annexin V-FITC/PI staining based flow cytometry analysis (Rvb =0.2%); type: functional
[20] = tested on: MCF7; assay: Induction of ROS production in human MCF7 cells at 3 uM incubated for 24 hrs by DCFH-DA staining based flow cytometric analysis; type: functional, cell-based
[21] = tested on: MCF7; assay: Induction of ROS production in Nur77 knockout human MCF7 cells at 3 uM incubated for 24 hrs by DCFH-DA staining based flow cytometric analysis; type: functional, cell-based
[22] = tested on: MCF7; assay: Induction of ferroptosis in human MCF7 cells assessed as increase in malondialdehyde level at 1.5 to 4.5 uM incubated for 24 hrs by MDA assay; type: functional, cell-based; conditions: dose 1.5-4.5 µM
[23] = tested on: T47D; assay: Induction of ferroptosis in human T47D cells assessed as increase in malondialdehyde level at 1.5 to 4.5 uM incubated for 24 hrs by MDA assay; type: functional, cell-based; conditions: dose 1.5-4.5 µM
[24] = tested on: MCF7; assay: Anticancer activity in human MCF7 cells assessed as reduction in cell viability at 3 uM in presence of fer-1 by MTT assay; type: functional, cell-based
[25] = tested on: MCF7; assay: Anticancer activity in human MCF7 cells assessed as cell viability at 3 uM in presence of DFO by MTT assay; type: functional, cell-based
[26] = tested on: MCF7; assay: Induction of ferroptosis in Nur77 knockout human MCF7 cells assessed as accumulation of lipid peroxidation at 3 uM incubated for 24 hrs by BODIPYTM 581/591C11 probe based inverted fluorescence microscopic analysis; type: functional, cell-based
[27] = tested on: MCF7; assay: Induction of ferroptosis in Nur77 knockout human MCF7 cells assessed as […] at 3 uM incubated for 24 hrs by BODIPYTM 581/591C11 probe based flow cytometry analysis; type: functional, cell-based
[28] = tested on: MCF7; assay: Induction of ferroptosis in Nur77 knockout human MCF7 cells assessed as […] incubated for 24 hrs by Western blot analysis; type: functional, cell-based
[29] = tested on: MCF7; assay: Induction of ferroptosis in human MCF7 cells assessed as decrease in GPX4 expression at 3 uM incubated for 24 hrs in presence of fer-1 by Western blot analysis; type: functional, cell-based
[30] = tested on: HepG2; assay: Induction of ferroptosis in human HepG2 cells assessed as decrease in GPX4 expression at 3 uM incubated for 24 hrs by Western blot analysis; type: functional, cell-based
[31] = tested on: HepG2; assay: Induction of ferroptosis in Nur77 knockout human HepG2 cells assessed as increase in GPX4 expression at 3 uM incubated for 24 hrs by Western blot analysis; type: functional, cell-based
[32] = tested on: MCF7; assay: Induction of ferroptosis in human MCF7 cells assessed as effect on SLC7A11 expression at 3 uM incubated for 24 hrs in presence of fer-1 by Western blot analysis; type: functional, cell-based
[33] = AUC (0 to infinity) in nude BALB/c mouse at 20 mg/kg, IG measured after 24 hrs; type: ADME, organism-based; conditions: in vivo, po
[34] = Half life in nude BALB/c mouse at 20 mg/kg, IG measured after 24 hrs; type: ADME, organism-based; conditions: in vivo, po
[35] = Cmax in nude BALB/c mouse at 20 mg/kg, IG measured after 24 hrs; type: ADME, organism-based; conditions: in vivo, po
[36] = tested on: MCF7; assay: Antitumor activity against human MCF7 cells xenografted in nude BALB/c mouse assessed as tumor growth inhibition at 10 mg/kg/day, IG administered on alternative days for 21 days relative to control; type: functional; conditions: MCF7, po, 504 h, time 21 day, read-out: TGI
[37] = tested on: MCF7; assay: Antitumor activity against human MCF7 cells xenografted in nude BALB/c mouse assessed as tumor growth inhibition at 20 mg/kg/day, IG administered on alternative days for 21 days relative to control; type: functional; conditions: MCF7, po, 504 h, time 21 day, read-out: TGI
[38] = tested on: MCF7; assay: Antitumor activity against human MCF7 cells xenografted in nude BALB/c mouse assessed as increase in Nur77 level in tumor at 10 to 20 mg/kg/day, IG administered on alternative days for 21 days by immunohistochemical analysis; type: functional, organism-based; conditions: dose 10-20 mg/kg/day, time 21.0 day
[39] = tested on: MCF7; assay: Antitumor activity against human MCF7 cells xenografted in nude BALB/c mouse assessed as decrease in GPX4 level in tumor at 10 to 20 mg/kg/day, IG administered on alternative days for 21 days by immunohistochemical analysis; type: functional, organism-based; conditions: dose 10-20 mg/kg/day, time 21.0 day
[40] = Toxicity in nude BALB/c mouse xenografted with human MCF7 cells assessed as appearance of intact hepatic lobules with central veins and cords of radiating hepatocytes at 10 to 20 mg/kg/day, IG administered on alternative days for 21 days by H and E staining analysis; type: organism-based; conditions: in vivo, po, 504 h, dose 10-20 mg/kg/day, time 21 day
[41] = Toxicity in nude BALB/c mouse xenografted with human MCF7 cells assessed as change in body weight at 10 to 20 mg/kg/day, IG administered on alternative days for 21 days; type: organism-based; conditions: in vivo, po, 504 h, dose 10-20 mg/kg/day, time 21 day
[42] = tested on: MCF7; assay: cells; conditions: Homo sapiens, MCF7, 24 h
Description: Antiproliferative activity against human MCF7 cells assessed as inhibition of cell growth incubated for 24 hrs by MTT assay

[43] = tested on: T47D; assay: cells; conditions: Homo sapiens, 24 h
Description: Antiproliferative activity against human T47D cells assessed as inhibition of cell growth incubated for 24 hrs by MTT assay

[44] = tested on: MDA-MB-231; assay: cells; conditions: Homo sapiens, MDA-MB-231, 24 h
Description: Antiproliferative activity against human MDA-MB-231 cells assessed as inhibition of cell growth incubated for 24 hrs by MTT assay

[45] = tested on: BT-549; assay: cells; conditions: Homo sapiens, BT-549, 24 h
Description: Antiproliferative activity against human BT-549 cells assessed as inhibition of cell growth incubated for 24 hrs by MTT assay

Structure (SMILES): O=C(Nc1ccc(C(=O)N/N=C/c2cccc(Cl)c2)cc1)Nc1ccc2ncccc2c1
- Activity [1]: Active
- inhibition at 50 µM [2]: 81%
- pIC50 [3]: 5.49
- pIC50 [4]: 5.67
- pIC50 [5]: < 4.30
- pIC50 [6]: < 4.30
- inhibition at 4.5 µM [7]: 100%
- Activity [8]: Active
- Activity [9]: inactive
- Activity [10]: Active; Compound Showed Weak Activity Compared To Wild-Type Cells
- Activity [11]: Active; Compound Showed Weak Activity Compared To Wild-Type Cells
- viability at 3 µM [12]: 97.3%
- Activity [13]: 0.8%
- Activity [14]: 1.65%
- Activity [15]: 0.27%
- viability at 6 µM [16]: 94.3%
- Activity [17]: 1.29%
- Activity [18]: 4.1%
- Activity [19]: 0.34%
- Activity [20]: Active
- Activity [21]: inactive
- Activity [22]: Active
- Activity [23]: Active
- Activity [24]: Active
- Activity [25]: Active
- Activity [26]: inactive
- Activity [27]: Active
- Activity [28]: Active
- Activity [29]: Active
- Activity [30]: Active
- Activity [31]: Active
- Activity [32]: Active
- AUC(0-inf) [33]: 58.8 ng·h/mL
- half-life [34]: 89.4 min
- Cmax [35]: 37.5 ng/mL
- inhibition in vivo at 10 mg/kg/day [36]: 43.5%
- inhibition in vivo at 20 mg/kg/day [37]: 49%
- Activity [38]: Active
- Activity [39]: Active
- Activity [40]: Non-toxic
- Activity [41]: Non-toxic
- pIC50 [42]: 5.64
- pIC50 [43]: 5.25
- pIC50 [44]: 5.50
- pIC50 [45]: 5.41
